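Following 48 hours of exposure in 96-well plates, responses at five concentrations were used to interpolate endpoints linearly. Here, GI50 denotes the concentration required for 50% inhibition of growth.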 Calls of active or inactive are those of the source. No stated cut-off is given here; in the data, active = GI50 up to about 1.1 µM and inactive = higher.
Assays:
Assay in all cases: DTP human tumour cell line panel, 48 h
EKVX = test system: EKVX
SNB-19 = test system: SNB-19
CAKI-1 = test system: CAKI-1
COLO 205 = test system: COLO 205
SR = test system: SR
SK-MEL-5 = test system: SK-MEL-5
SK-OV-3 = test system: SK-OV-3
DU-145 = test system: DU-145
NCI-H23 = test system: NCI-H23
LOX IMVI = test system: LOX IMVI
OVCAR-8 = test system: OVCAR-8
KM12 = test system: KM12
A549 = test system: A549
NCI/ADR-RES = test system: NCI/ADR-RES
MDA-N = test system: MDA-N
Hs-578T = test system: Hs-578T
HOP-62 = test system: HOP-62
SF-539 = test system: SF-539
ACHN = test system: ACHN
BT-549 = test system: BT-549

Measured: GI50

O=C1Nc2ccccc2/C1=N/NC(=S)Nc1ccc(Cl)cc1
inactive: EKVX 36.2 µM | SNB-19 41.8 µM | CAKI-1 11.3 µM | COLO 205 40.8 µM | SR 10.8 µM | SK-MEL-5 17.2 µM | SK-OV-3 38.5 µM | DU-145 > 100 µM | NCI-H23 57.4 µM | LOX IMVI 27.7 µM | OVCAR-8 18.2 µM | KM12 5.77 µM | A549 34.6 µM | NCI/ADR-RES 12.1 µM | MDA-N 63.7 µM | Hs-578T > 100 µM | HOP-62 34.8 µM | SF-539 29.2 µM | ACHN 25.6 µM

Cc1csc(-n2c(C)nc3cc(Cl)ccc3c2=O)n1
inactive: EKVX 8.02 µM | SNB-19 > 100 µM | CAKI-1 > 100 µM | BT-549 > 100 µM | COLO 205 71 µM | SR > 100 µM | SK-MEL-5 43.1 µM | SK-OV-3 > 100 µM | DU-145 > 100 µM | NCI-H23 71.8 µM | LOX IMVI 96.2 µM | OVCAR-8 > 100 µM | KM12 > 100 µM | A549 > 100 µM | NCI/ADR-RES 86.3 µM | MDA-N > 100 µM | HOP-62 > 100 µM | SF-539 > 100 µM | ACHN > 100 µM

COc1ccc(-c2nc(SCC(=O)N/N=C/c3ccc(O)c(OC)c3)[nH]c2-c2ccc(OC)cc2)cc1
inactive: EKVX 33.3 µM | SNB-19 41.1 µM | CAKI-1 54.3 µM | BT-549 22.1 µM | COLO 205 19.8 µM | SK-MEL-5 17.7 µM | SK-OV-3 29.4 µM | DU-145 39.8 µM | NCI-H23 21.9 µM | LOX IMVI 22.8 µM | OVCAR-8 28.9 µM | KM12 33.3 µM | A549 34.9 µM | NCI/ADR-RES 31.8 µM | MDA-N 22.1 µM | HOP-62 24.6 µM | SF-539 21.4 µM | ACHN 18.2 µM

CCOC1=CP(=O)(OCC)CC(C)=C1Cl (stereo not drawn)
inactive: EKVX > 100 µM | SNB-19 > 100 µM | CAKI-1 > 100 µM | COLO 205 7.21 µM | SR > 100 µM | SK-MEL-5 > 100 µM | SK-OV-3 > 100 µM | NCI-H23 > 100 µM | LOX IMVI > 100 µM | OVCAR-8 > 100 µM | KM12 > 100 µM | A549 > 100 µM | HOP-62 > 100 µM | SF-539 > 100 µM | ACHN > 100 µM

Nc1ccc(/C=C/c2ccc3cccnc3c2)cc1
inactive: EKVX > 100 µM | SNB-19 > 100 µM | CAKI-1 90.8 µM | COLO 205 > 100 µM | SR > 100 µM | SK-MEL-5 > 100 µM | SK-OV-3 > 100 µM | DU-145 > 100 µM | NCI-H23 > 100 µM | LOX IMVI > 100 µM | OVCAR-8 > 100 µM | KM12 > 100 µM | A549 > 100 µM | NCI/ADR-RES > 100 µM | MDA-N > 100 µM | Hs-578T > 100 µM | HOP-62 > 100 µM | SF-539 > 100 µM | ACHN 52.5 µM

Cc1cc(S(=O)(=O)NC2=NNC(C)CN2)c(S)cc1Cl (stereo not drawn)
inactive: EKVX 96.6 µM | SNB-19 60 µM | CAKI-1 56.8 µM | BT-549 49.3 µM | COLO 205 > 100 µM | SR 37.2 µM | SK-MEL-5 35.1 µM | SK-OV-3 > 100 µM | DU-145 75.7 µM | NCI-H23 48.6 µM | LOX IMVI 18.4 µM | OVCAR-8 32.1 µM | KM12 61.8 µM | A549 37.9 µM | NCI/ADR-RES 33.4 µM | MDA-N 39.6 µM | HOP-62 48.8 µM | SF-539 43.9 µM | ACHN 46.1 µM

CSc1cc(Cl)c(C)cc1S(=O)(=O)NC(=O)NNc1cnc2ccccc2n1
inactive: EKVX > 100 µM | SNB-19 > 100 µM | CAKI-1 > 100 µM | COLO 205 > 100 µM | SR > 100 µM | SK-MEL-5 > 100 µM | SK-OV-3 > 100 µM | DU-145 > 100 µM | LOX IMVI > 100 µM | OVCAR-8 > 100 µM | KM12 > 100 µM | A549 > 100 µM | NCI/ADR-RES > 100 µM | MDA-N > 100 µM | Hs-578T > 100 µM | HOP-62 > 100 µM | SF-539 > 100 µM | ACHN > 100 µM

CS(=O)(=O)c1nc(-c2cc3c(c(S(C)(=O)=O)n2)CCCC3)cc2c1CCCCC2
inactive: EKVX > 100 µM | SNB-19 > 100 µM | CAKI-1 59.3 µM | BT-549 > 100 µM | COLO 205 > 100 µM | SK-MEL-5 > 100 µM | SK-OV-3 72.4 µM | DU-145 > 100 µM | NCI-H23 > 100 µM | OVCAR-8 32.5 µM | KM12 > 100 µM | A549 > 100 µM | NCI/ADR-RES > 100 µM | MDA-N > 100 µM | HOP-62 31.6 µM | ACHN > 100 µM

CCOC(=O)c1ccc(NCc2ccc3nc(OC)c(OC)nc3c2)cc1
inactive: EKVX > 100 µM | SNB-19 > 100 µM | CAKI-1 > 100 µM | COLO 205 > 100 µM | SR > 100 µM | SK-MEL-5 > 100 µM | SK-OV-3 > 100 µM | DU-145 > 100 µM | NCI-H23 > 100 µM | LOX IMVI > 100 µM | OVCAR-8 84.7 µM | KM12 > 100 µM | A549 > 100 µM | NCI/ADR-RES > 100 µM | MDA-N > 100 µM | HOP-62 > 100 µM | SF-539 > 100 µM | ACHN > 100 µM

CC1=CC[C@@]2(C)CC[C@](O)(C(C)C)C2C(OC(=O)c2ccccc2)C1 (stereo partly drawn)
inactive: EKVX 15.5 µM | SNB-19 20.7 µM | CAKI-1 21.1 µM | COLO 205 22.1 µM | SR 31.7 µM | SK-MEL-5 18.3 µM | SK-OV-3 14.3 µM | DU-145 18.1 µM | NCI-H23 18.5 µM | LOX IMVI 19.4 µM | OVCAR-8 19.4 µM | KM12 18.4 µM | A549 15.6 µM | NCI/ADR-RES 19.7 µM | Hs-578T 21.2 µM | HOP-62 18 µM | SF-539 19.8 µM | ACHN 17.8 µM

COC(=O)C1(C(=O)OC)C/C(C)=C(/C)SCCCS1
inactive: EKVX > 100 µM | SNB-19 > 100 µM | CAKI-1 > 100 µM | COLO 205 > 100 µM | SR 81.3 µM | SK-MEL-5 > 100 µM | SK-OV-3 > 100 µM | DU-145 > 100 µM | NCI-H23 > 100 µM | LOX IMVI > 100 µM | OVCAR-8 > 100 µM | KM12 > 100 µM | A549 > 100 µM | NCI/ADR-RES > 100 µM | MDA-N > 100 µM | Hs-578T > 100 µM | HOP-62 > 100 µM | SF-539 > 100 µM | ACHN > 100 µM

Cc1cc(Cl)cc2c1NC(=O)C2(O)C(C)C(=O)c1ccc(Cl)cc1 (stereo not drawn)
inactive: EKVX > 81.5 µM | SNB-19 > 100 µM | CAKI-1 > 92.5 µM | COLO 205 97.1 µM | SR > 66.2 µM | SK-MEL-5 27.7 µM | SK-OV-3 > 100 µM | NCI-H23 > 72.1 µM | LOX IMVI > 100 µM | OVCAR-8 > 85.9 µM | KM12 99.1 µM | A549 > 100 µM | HOP-62 > 100 µM | SF-539 > 62.1 µM | ACHN > 100 µM

Cc1cc(C#N)c(Nc2c(C)cccc2[N+](=O)[O-])s1
inactive: EKVX 27.3 µM | SNB-19 68.2 µM | CAKI-1 36.9 µM | BT-549 24.3 µM | COLO 205 > 100 µM | SR 49.7 µM | SK-OV-3 35.4 µM | DU-145 36.2 µM | NCI-H23 39.7 µM | OVCAR-8 42.9 µM | KM12 > 100 µM | A549 46.3 µM | NCI/ADR-RES 25.4 µM | MDA-N 97.7 µM | HOP-62 25.4 µM | SF-539 43.2 µM | ACHN 49.7 µM

CCCC/C=C1\CCC(CN2CCOCC2)C1=O (stereo not drawn)
inactive: EKVX 11.2 µM | SNB-19 15.8 µM | CAKI-1 1.92 µM | BT-549 3.56 µM | COLO 205 2.97 µM | SR 1.73 µM | SK-MEL-5 12 µM | SK-OV-3 17.1 µM | DU-145 16.9 µM | NCI-H23 5.7 µM | LOX IMVI 1.24 µM | OVCAR-8 10 µM | KM12 1.8 µM | A549 20.4 µM | MDA-N 10.7 µM | HOP-62 15.7 µM | SF-539 7.73 µM | ACHN 3.59 µM

Cc1ccc(-n2c(N)c(C#N)c3[nH]nc(N)c3c2=O)cc1
inactive: EKVX 95.1 µM | SNB-19 > 100 µM | CAKI-1 > 100 µM | COLO 205 > 100 µM | SR > 10 µM | SK-MEL-5 > 100 µM | SK-OV-3 > 100 µM | DU-145 > 100 µM | NCI-H23 > 100 µM | LOX IMVI > 100 µM | OVCAR-8 > 100 µM | KM12 > 100 µM | NCI/ADR-RES > 100 µM | Hs-578T > 100 µM | HOP-62 > 100 µM | SF-539 > 100 µM | ACHN > 100 µM

CCOC(=O)c1cnc(-n2[nH]c(C)c(CCO)c2=O)[nH]c1=O
inactive: EKVX > 100 µM | SNB-19 > 100 µM | CAKI-1 > 100 µM | COLO 205 > 100 µM | SK-MEL-5 > 100 µM | SK-OV-3 > 100 µM | DU-145 > 100 µM | NCI-H23 > 100 µM | LOX IMVI > 100 µM | OVCAR-8 > 100 µM | KM12 > 100 µM | A549 > 100 µM | NCI/ADR-RES > 100 µM | MDA-N > 100 µM | Hs-578T > 100 µM | HOP-62 > 100 µM | SF-539 > 100 µM | ACHN > 100 µM

Reference: ChEMBL document CHEMBL1201862, “PubChem BioAssay data set” (2004)
